Drawing on US20090099319A1, “METHOD FOR SOLUBILISING HYDROPHOBIC ACTIVE SUBSTANCES IN AN AQUEOUS MEDIUM” (BASF SE, priority 2006, published 2009), this text covers solubility for 1 compound.

A short description of this series: physchem. To be noted: water, thermodynamic from solid.

Values after ≈ are worked out from the molar mass of the structure shown.

Description: The excess solid was separated off by subsequently centrifuging the solutions twice at 15 000 rpm (20 minutes in each case), producing in all instances a clear, saturated solution of active substance. Subsequently the amount of the guest molecules complexed was determined by means of UV-VIS spectra, the reference sample used in each case being the respective aqueous polymer solution with the same concentration and the same preparation (likewise centrifuged). […] For all of the solubilization experiments evaluated in this way, the measurement error was ±5%.

In turn, `COCCOC(=O)C1=C(C)NC(C)=C(C(=O)OC(C)C)C1c1cccc([N+](=O)[O-])c1` (stereo not drawn) [nimodipine, 1,4-dihydro-2,6-dimethyl-4-(3′-nitrophenyl)pyridine 3-β-methoxyethyl ester 5-isopropyl ester] gave a solubility at 18 h of 1.1 µg/mL (≈ 2.63 µM).
